The subject of this experiment is Circulating human tumour cells (CTC's) characterised by EpCAM. Briefly: in vitro vitality reduction of circulating tumour cells from a blood sample of a prostate carcinoma patient. Type of experiment: cell-based. The note with it: CTCs of a prostate carcinoma patient. The text has this:
A patient, suffering from a prostate carcinoma, was examined by checking a blood sample. Circulating human tumour cells (CTC's) characterised by EpCAM and additional cell surface markers have been used. The CTC's have been tested with different anti-cancer drugs. […] Furthermore, the positive effects could be shown to be dose dependent.

On to `CCC(=O)C(CC(C)N(C)C)(c1ccccc1)c1ccccc1` (centres unmarked) [Methadone], for which the “Concentration- and time-dependent specific in vitro vitality reduction (%) in the presence of eutherapeutic concentrations” value (3 × 15 drops) was found to be 30%.
As for `C[C@H]1[C@H](OC(=O)CCC(=O)O)O[C@@H]2O[C@@]3(C)CC[C@H]4[C@H](C)CC[C@@H]1[C@@]24OO3` [Artesunat], for the setting “eutherapeutic concentration, not specified”, the “Concentration- and time-dependent specific in vitro vitality reduction (%) in the presence of eutherapeutic concentrations” value was 60%.
For the compound `C=C1CC[C@H](O)C/C1=C/C=C1\CCC[C@]2(C)[C@@H]([C@H](C)CCCC(C)(C)O)CC[C@@H]12` [Example 25-OH-D3, 25-OH-D3], the “Concentration- and time-dependent specific in vitro vitality reduction (%) in the presence of eutherapeutic concentrations” value is, setting by setting: (100 ng/ml) 25%; (200 ng/ml) 30%.
In the case of `COc1cc(/C=C/C(=O)CC(=O)/C=C/c2ccc(O)c(OC)c2)ccc1O` [Curcumin, curcumin], the “Concentration- and time-dependent specific in vitro vitality reduction (%) in the presence of eutherapeutic concentrations” value (450 mg) was 80%.
